Laboratory results as given in paper PMC11596557, “Exiguolysin, a Novel Thermolysin (M4) Peptidase from Exiguobacterium oxidotolerans” (Microorganisms, 2024).

Experiments:
[1] = test system: E. oxidotolerans peptidase; assay: Casein zymography with and without 1,10-phenanthroline; format: biochemical, Exiguobacterium oxidotolerans; settings: crude and purified samples; 1,10-phenanthroline in renaturing buffer
Experimental: Casein zymography was used to visualize protease activity in fractions collected from the Akta Prime HIC system. Samples were prepared in Laemmli buffer and run on a Tris-Glycine casein zymogram gel using the XCell SureLock™ Mini-Cell system. Following electrophoresis, gels were sectioned and renatured in Novex zyogram renaturing buffer with and without 1,10 phenanthroline (5 mM) to assess metalloprotease activity. Gels were stained, destained, and analyzed for caseinolytic peptidase activity.

[2] = test system: E. oxidotolerans protease; assay: Azocasein hydrolysis with class-specific protease inhibitors (culture supernatant); format: biochemical, Exiguobacterium oxidotolerans; settings: 1,10-phenanthroline 2 mM, PMSF 0.2 mM, E-64 10 μM; 37 °C, 1 h; crude preparation
Experimental: Peptidase activity was quantified using azocasein hydrolysis. Conditioned media (100 µL) was mixed with 1% (w/v) azocasein in PBS and incubated at […] for 1 h. The reaction was quenched by adding 400 µL of 5% trifluoroacetic acid (TFA), and the mixture was centrifuged at 13,000 rpm for 10 min. Absorbance of the supernatant was measured at 440 nm to determine protease activity. Units of protease activity were calculated as previously described by Loomes et al..
Overnight cultures were centrifuged (4000 rpm, 4 °C, 12 min), and the supernatant was filtered through a 0.45 µm nitrocellulose membrane. Protease activity was evaluated by incubating 100 µL of supernatant with 1% azocasein at 37 °C for 1 h. The reaction was quenched with 400 µL of TFA, and absorbance was measured at 440 nm. Protease mechanistic class was determined by incubating the supernatant with 2 mM 1,10-phenanthroline (metalloprotease inhibitor), 0.2 mM PMSF (serine protease inhibitor), and 10 µM E-64 (cysteine protease inhibitor) prior to azocasein hydrolysis.

[3] = test system: E. oxidotolerans peptidase; assay: Fluorogenic substrate hydrolysis progress curves with class-specific inhibitors (purified enzyme); format: biochemical, Exiguobacterium oxidotolerans; settings: 1,10 phenanthroline 2 mM, PMSF 0.2 mM, E-64 10 μM
Experimental: Peptidase activity was confirmed using the matrix metalloproteinase (MMP) substrate Mca-Lys-Pro-Leu-Gly-Leu-Dap-(Dnp)-Ala-Arg-NH2 (Peptides International). Class-specific inhibitors were used to determine the catalytic mechanism, including E-64 (10 μM) for cysteine proteases, 1,10 phenanthroline (2 mM) for metalloproteases, and PMSF (0.2 mM) for serine proteases. These concentrations were selected based on established guidelines for effective inhibition. Fluorescence was monitored at excitation 330 nm and emission 460 nm over a 45 min period as described previously.
Time-dependent hydrolysis of the fluorogenic substrate Mca-Lys-Pro-Leu-Gly-Leu-Dap-(Dnp)-Ala-Arg-NH2 by exiguolysin was measured in 96-well plates (total volume 100 µL) with fluorescence was measured every 30 s for 45 min using a plate reader (excitation at 330 nm and emission at 460 nm). Progress curves were generated, and kinetic parameters were determined using non-linear regression.

[4] = molecular target: thermolysin-like protease of E. oxidotolerans (exiguolysin) (Exiguobacterium oxidotolerans, UniProt A0A653I866); assay: Inhibitor screening and Ki determination, fluorogenic MMP substrate assay; format: biochemical; settings: fluorogenic substrate hydrolysis, 37 °C; Morrison equation for tight-binding inhibitors; Km 14.20 µM; read-out: True Ki
Experimental: The inhibition of protease activity was screened using a 20 × 20 library of N-alpha dipeptide mercaptoamide inhibitors as previously described by Cathcart et al., and the half-maximal inhibitory constant (Ki) values were determined. In order to determine Michaelis–Menten constant, Km, of the fluorogenic substrate, exiguolysin (previously purified by HIC, final concentration 5 units/well) was added to wells of a 96-well black microtitre plate (Nunc); the volume was adjusted to 75 µL in assay buffer (25 mM Tris, 2.5 mM CaCl2, pH 7.0), and fluorogenic substrate (25 µL) was added at concentrations of 0, 1, 10, 25, 50, 100 and 200 µM. Time-dependent hydrolysis of the fluorogenic substrate was measured (excitation/emission […] nm) every 30 s for 30 min. The Km is determined using the Michealis–Menten equation, by plotting the rate of substrate hydrolysis against substrate concentration.
Initially, each inhibitor was tested at a final concentration of 100 µM in a broad-spectrum screen, employing a standard fluorogenic substrate assay using Mca-Lys-Pro-Leu-Gly-Leu-Dap-(Dnp)-Ala-Arg-NH2. Enzyme reactions were carried out in a 96-well black plate at 37 °C, and fluorescence was monitored as described above.

PAR-1 = molecular target: T1, PAR-1 (Homo sapiens, UniProt P25116); assay: Calcium mobilization assay in PC-3 cells (Fluo-4 AM); format: cell-based; settings: protease pre-incubated with inhibitor, thrombin-induced activation
T1 construct: calcium mobilization in PC-3 cells (expressing PAR1); endogenous in cells; host or cells: PC-3
T1 sequence (P25116 22-425): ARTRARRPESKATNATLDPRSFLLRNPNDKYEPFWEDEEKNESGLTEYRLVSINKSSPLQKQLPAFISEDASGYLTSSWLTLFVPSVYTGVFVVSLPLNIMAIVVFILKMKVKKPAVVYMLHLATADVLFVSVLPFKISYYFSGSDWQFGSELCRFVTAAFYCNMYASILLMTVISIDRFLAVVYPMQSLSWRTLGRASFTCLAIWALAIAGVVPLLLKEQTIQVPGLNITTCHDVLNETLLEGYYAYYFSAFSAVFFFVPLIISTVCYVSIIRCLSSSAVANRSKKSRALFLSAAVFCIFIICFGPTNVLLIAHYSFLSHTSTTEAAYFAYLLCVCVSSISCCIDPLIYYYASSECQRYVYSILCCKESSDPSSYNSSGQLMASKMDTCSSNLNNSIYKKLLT
Experimental: Calcium mobilization in PC-3 and HCT15 cells was assessed using the fluorescent calcium indicator Fluo-4 AM (ThermoFisher, UK). Cells were cultured in RPMI-1640 medium with 10% fetal bovine serum and antibiotics, maintained at 37 °C with 5% CO2. Cells were seeded in 96-well plates and incubated with 5 μM Fluo-4 AM for 30 min at 37 °C. After washing, cells were treated with 5 units/well of thermolysin-like protease or the agonists TFLLRN (PAR-1) and SLIGKV (PAR-2). Intracellular calcium changes were monitored using a BMG Fluostar plate reader (excitation: 494 nm, emission: 516 nm).

thermolysin-like protease of E. oxidotolerans (exiguolysin), sequence (A0A653I866 entry or part of it): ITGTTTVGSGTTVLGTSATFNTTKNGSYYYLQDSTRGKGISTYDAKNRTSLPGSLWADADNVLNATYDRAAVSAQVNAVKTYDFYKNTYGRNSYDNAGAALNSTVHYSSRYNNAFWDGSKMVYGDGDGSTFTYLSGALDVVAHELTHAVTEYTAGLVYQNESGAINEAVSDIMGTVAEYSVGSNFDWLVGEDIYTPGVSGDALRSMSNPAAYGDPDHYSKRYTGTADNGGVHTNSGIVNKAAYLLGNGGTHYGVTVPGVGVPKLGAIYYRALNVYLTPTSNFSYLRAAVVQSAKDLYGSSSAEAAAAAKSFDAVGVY

| SMILES | Ki [4] [µM] | further results |
| --- | --- | --- |
| c1cnc2c(c1)ccc1cccnc12 [1,10-phenanthroline] | – | Inhibition of proteolytically active bands in zymogram [1]: inhibited; Inhibition of azocasein hydrolysis [2]: significantly reduced protease activity; Inhibition of hydrolysis of Mca-Lys-Pro-Leu-Gly-Leu-Dap-(Dnp)-Ala-Arg-NH2 (progress curves) [3]: significantly inhibited |
| CC(C)C[C@H](NC(=O)[C@H]1O[C@@H]1C(=O)O)C(=O)NCCCCN=C(N)N [Inhibitor E-64, E-64] | – | Inhibition of azocasein hydrolysis [2]: partial inhibition; Inhibition of hydrolysis of Mca-Lys-Pro-Leu-Gly-Leu-Dap-(Dnp)-Ala-Arg-NH2 (progress curves) [3]: minimal effects |
| NCCCCC(NC(=O)C(CC(N)=O)NC(=O)CS)C(N)=O (stereo not drawn) [Me-Asn-Lys-NH2] | 20.9 | – |
| NC(=O)CC(NC(=O)CS)C(=O)NC(Cc1c[nH]c2ccccc12)C(N)=O (stereo not drawn) [Me-Asn-Trp-NH2] | 4.35 | – |
| NC(=O)CC(NC(=O)CS)C(=O)NC(Cc1ccc(O)cc1)C(N)=O (stereo not drawn) [Me-Asn-Tyr-NH2] | 5.71 | – |
| CCC(C)C(NC(=O)C(NC(=O)CS)C(C)CC)C(N)=O (stereo not drawn) [Me-Ile-Ile-NH2] | 11.2 | – |
| CCC(C)C(NC(=O)CS)C(=O)NC(C(N)=O)C(C)C (stereo not drawn) [Me-Ile-Val-NH2] | 8.33 | – |
| CSCCC(NC(=O)CS)C(=O)NC(Cc1ccc(O)cc1)C(N)=O (stereo not drawn) [Me-Met-Tyr-NH2, SH-CH2-CO-Met-Tyr-NH2] | 1.95 | – |
| N=C(N)NCCCC(NC(=O)C1CCCN1C(=O)CS)C(N)=O (stereo not drawn) [Me-Pro-Arg-NH2, SH-CH2-CO-Pro-Arg-NH2] | 3.97 | Reversal of the protease's PAR-1 disarming effect (PAR-1): reversed |
| NC(=O)C(Cc1ccccc1)NC(=O)C(Cc1ccc(O)cc1)NC(=O)CS (stereo not drawn) [Me-Tyr-Phe-NH2] | 5.52 | – |
| CC(C)C(NC(=O)C(NC(=O)CS)C(C)C)C(N)=O (stereo not drawn) [Me-Val-Val-NH2] | 3.21 | – |
| O=S(=O)(F)Cc1ccccc1 [PMSF] | – | Inhibition of azocasein hydrolysis [2]: Slight inhibition; Inhibition of hydrolysis of Mca-Lys-Pro-Leu-Gly-Leu-Dap-(Dnp)-Ala-Arg-NH2 (progress curves) [3]: minimal effects |
